From BindingDB's records for doi:10.1021/cb500956g (University of North Carolina At Chapel Hill, 2015)
pIC50: −log10 of the molar value.

Columns and labels:
Assay in all cases: AlphaScreen Assay
Conditions in all cases: pH 8
PHD finger protein 19 = PHD finger protein 19 (Homo sapiens, UniProt Q5T6S3)
Experimental: (§1) In brief, compound plates (1 μL at 10 mM highest concentration; 3-fold, 10-point dilutions in DMSO) were diluted in 1X assay buffer (20 mM TRIS pH 8.0, 25 mM NaCl, 2 mM DTT and 0.05% Tween-20) to 1 mM using a Multimek robotic pipettor (Nanoscreen), and 1 μL was spotted into the wells of 384-well low-volume Proxiplates (PerkinElmer). To these plates was added 9 μL of protein−peptide mix in a 1X assay buffer by Multidrop (Thermo) to bring the final compound concentration to 100 μM, and this was incubated for 30 min at RT. Next, 2 μL of a 1:1 mixture of streptavidin-conjugate donor and nickel-chelate acceptor beads (45μg/mL in 1X assay buffer) were added, and the plates were allowed to incubate for an additional 30 min in the dark at RT. After incubation, the plates were read on an EnVision multilabel reader equipped with an HTS AlphaScreen laser (PerkinElmer).

[1] = molecular target: Lysine-specific demethylase 5A (Homo sapiens, UniProt P29375)
Experimental: as §1

[2] = molecular target: T1, Isoform 4 of Lethal(3)malignant brain tumor-like protein 1 (4) (Homo sapiens, UniProt Q9Y468)
T1 sequence (Q9Y468 whole entry): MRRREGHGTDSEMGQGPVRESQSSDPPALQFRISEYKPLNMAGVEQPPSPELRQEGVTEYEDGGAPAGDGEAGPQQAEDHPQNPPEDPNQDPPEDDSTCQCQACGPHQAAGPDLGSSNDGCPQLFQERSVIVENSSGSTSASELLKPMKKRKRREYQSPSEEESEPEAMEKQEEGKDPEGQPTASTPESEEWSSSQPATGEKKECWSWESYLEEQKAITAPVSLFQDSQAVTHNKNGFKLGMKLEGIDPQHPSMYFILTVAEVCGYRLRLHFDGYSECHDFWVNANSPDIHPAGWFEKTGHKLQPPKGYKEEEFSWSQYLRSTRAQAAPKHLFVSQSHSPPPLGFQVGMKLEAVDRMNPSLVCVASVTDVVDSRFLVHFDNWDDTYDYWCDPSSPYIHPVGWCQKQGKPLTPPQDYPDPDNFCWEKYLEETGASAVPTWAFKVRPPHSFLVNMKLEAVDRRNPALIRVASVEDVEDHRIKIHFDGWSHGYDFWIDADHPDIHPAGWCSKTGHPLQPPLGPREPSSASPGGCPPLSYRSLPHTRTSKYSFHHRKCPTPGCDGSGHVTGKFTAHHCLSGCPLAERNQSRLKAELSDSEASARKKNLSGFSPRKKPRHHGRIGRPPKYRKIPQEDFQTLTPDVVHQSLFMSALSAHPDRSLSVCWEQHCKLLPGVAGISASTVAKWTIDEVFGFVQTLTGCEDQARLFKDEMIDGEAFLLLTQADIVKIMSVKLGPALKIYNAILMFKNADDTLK
Experimental: as §1

[3] = molecular target: T2, E3 ubiquitin-protein ligase UHRF1 (Homo sapiens, UniProt Q96T88)
T2 sequence (Q96T88 whole entry): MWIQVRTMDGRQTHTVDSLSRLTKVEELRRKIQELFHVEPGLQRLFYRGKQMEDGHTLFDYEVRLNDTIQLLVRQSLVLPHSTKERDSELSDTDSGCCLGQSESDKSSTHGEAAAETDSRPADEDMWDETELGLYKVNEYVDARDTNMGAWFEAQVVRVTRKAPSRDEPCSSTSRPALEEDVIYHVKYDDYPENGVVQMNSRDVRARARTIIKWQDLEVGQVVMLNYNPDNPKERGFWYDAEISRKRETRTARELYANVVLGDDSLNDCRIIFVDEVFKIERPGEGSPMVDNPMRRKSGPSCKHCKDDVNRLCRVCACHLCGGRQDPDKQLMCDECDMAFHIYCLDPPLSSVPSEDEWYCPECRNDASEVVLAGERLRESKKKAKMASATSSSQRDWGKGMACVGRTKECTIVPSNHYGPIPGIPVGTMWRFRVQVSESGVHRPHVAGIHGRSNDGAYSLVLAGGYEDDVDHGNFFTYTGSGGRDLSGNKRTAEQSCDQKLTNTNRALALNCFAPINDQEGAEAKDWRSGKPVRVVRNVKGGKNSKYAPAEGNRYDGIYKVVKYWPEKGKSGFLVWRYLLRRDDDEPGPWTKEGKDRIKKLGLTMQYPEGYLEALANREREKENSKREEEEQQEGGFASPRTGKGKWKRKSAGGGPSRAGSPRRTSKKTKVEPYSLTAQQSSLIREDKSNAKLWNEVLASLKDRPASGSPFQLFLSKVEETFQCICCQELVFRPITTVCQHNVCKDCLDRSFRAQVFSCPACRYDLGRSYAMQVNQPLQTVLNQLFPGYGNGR
Experimental: as §1

PHD finger protein 23 = PHD finger protein 23 (Homo sapiens, UniProt Q9BUL5)
Experimental: as §1

[4] = molecular target: T3, Lethal(3)malignant brain tumor-like protein 3 (Homo sapiens, UniProt Q96JM7)
T3 sequence (Q96JM7 whole entry): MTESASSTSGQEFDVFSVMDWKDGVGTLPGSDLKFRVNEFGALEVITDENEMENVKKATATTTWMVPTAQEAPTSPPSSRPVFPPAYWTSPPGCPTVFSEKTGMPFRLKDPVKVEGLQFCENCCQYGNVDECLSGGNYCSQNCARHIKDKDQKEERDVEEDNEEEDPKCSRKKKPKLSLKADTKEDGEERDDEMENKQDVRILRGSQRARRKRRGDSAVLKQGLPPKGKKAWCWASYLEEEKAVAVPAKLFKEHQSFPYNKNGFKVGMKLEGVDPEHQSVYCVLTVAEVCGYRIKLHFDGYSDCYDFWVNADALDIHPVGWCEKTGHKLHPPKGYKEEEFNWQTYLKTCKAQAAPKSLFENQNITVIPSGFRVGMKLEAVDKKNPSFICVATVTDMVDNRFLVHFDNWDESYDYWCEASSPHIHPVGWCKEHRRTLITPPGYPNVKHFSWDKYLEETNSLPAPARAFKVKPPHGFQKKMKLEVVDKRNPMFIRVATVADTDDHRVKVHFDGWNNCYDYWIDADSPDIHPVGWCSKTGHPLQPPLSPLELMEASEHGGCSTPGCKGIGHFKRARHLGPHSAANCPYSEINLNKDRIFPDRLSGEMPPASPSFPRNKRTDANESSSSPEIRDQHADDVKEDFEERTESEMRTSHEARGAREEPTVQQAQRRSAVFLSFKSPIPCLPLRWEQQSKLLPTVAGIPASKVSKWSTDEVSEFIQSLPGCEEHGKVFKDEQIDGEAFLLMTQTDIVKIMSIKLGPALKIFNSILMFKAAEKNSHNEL
Experimental: as §1

Measured: pIC50

Sequence of Lysine-specific demethylase 5A (P29375 whole entry): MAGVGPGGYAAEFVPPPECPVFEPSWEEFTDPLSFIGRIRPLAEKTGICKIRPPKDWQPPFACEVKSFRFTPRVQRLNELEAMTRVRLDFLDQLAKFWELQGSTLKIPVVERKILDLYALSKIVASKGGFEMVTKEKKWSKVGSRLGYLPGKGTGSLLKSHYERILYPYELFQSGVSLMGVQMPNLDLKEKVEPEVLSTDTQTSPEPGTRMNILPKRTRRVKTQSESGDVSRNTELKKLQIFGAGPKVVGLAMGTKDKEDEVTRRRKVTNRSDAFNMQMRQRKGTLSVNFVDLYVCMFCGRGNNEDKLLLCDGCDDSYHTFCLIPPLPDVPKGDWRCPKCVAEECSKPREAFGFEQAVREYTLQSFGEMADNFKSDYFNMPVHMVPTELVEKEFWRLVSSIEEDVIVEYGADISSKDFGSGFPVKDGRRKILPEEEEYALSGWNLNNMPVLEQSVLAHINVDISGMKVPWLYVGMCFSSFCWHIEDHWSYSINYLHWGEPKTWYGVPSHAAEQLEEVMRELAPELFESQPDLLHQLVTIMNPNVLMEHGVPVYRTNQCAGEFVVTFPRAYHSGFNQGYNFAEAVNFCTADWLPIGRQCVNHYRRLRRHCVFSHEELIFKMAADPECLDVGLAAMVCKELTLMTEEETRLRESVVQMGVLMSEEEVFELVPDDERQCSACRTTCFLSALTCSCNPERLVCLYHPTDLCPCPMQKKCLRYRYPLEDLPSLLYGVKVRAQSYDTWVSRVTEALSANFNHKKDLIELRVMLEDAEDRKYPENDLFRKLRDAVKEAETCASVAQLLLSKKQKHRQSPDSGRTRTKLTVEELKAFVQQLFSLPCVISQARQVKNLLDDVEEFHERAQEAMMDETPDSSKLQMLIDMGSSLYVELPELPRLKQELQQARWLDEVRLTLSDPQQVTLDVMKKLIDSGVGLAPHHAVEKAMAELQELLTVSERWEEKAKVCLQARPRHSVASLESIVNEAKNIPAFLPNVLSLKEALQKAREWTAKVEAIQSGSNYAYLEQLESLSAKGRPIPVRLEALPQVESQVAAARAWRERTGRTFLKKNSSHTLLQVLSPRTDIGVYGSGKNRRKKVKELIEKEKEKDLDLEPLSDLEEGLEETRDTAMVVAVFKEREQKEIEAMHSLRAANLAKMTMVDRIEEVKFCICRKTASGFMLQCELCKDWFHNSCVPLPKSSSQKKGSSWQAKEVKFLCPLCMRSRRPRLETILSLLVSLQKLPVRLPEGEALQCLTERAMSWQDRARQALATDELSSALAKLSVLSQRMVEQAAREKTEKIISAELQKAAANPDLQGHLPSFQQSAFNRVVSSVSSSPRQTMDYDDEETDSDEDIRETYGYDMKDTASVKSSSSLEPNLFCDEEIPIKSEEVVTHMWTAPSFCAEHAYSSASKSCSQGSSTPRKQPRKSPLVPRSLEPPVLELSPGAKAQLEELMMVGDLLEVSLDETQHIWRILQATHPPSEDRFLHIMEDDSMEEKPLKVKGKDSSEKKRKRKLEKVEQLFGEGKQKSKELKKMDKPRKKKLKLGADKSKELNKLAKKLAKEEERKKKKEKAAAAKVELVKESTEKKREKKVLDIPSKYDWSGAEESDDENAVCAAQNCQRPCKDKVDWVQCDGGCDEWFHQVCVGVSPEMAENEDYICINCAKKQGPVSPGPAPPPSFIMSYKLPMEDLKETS
Sequence of PHD finger protein 23 (Q9BUL5 whole entry): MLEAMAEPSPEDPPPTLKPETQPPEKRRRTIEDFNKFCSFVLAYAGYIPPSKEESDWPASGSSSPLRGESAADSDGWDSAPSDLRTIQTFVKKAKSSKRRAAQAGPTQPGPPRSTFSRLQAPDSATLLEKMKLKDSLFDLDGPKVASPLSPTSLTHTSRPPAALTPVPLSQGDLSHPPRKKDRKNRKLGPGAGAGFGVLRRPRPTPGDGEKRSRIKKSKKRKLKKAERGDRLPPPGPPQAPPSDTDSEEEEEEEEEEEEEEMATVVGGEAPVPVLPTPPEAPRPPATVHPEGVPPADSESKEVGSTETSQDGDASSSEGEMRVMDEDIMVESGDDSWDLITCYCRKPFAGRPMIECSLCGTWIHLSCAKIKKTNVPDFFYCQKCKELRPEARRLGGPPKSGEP

CC(C)(C)NCCCCNC(=O)c1cccc(Br)c1 [3-Bromo-N-(4-(tert-butylamino)butyl)benzamide (11)]
< 4.00: all assays above

CC(C)(C)N1CCN(C(=O)c2cccc(Br)c2)CC1 [(3-Bromophenyl)(4-(tert-butyl)piperazin-1-yl)methanone (10)]
< 4.00: all assays above

CC(C)(C)NCCCNC(=O)c1ccccc1Br [2-Bromo-N-(3-(tert-butylamino)propyl)benzamide (16)]
< 4.00: all assays above

CC(C)(C)NCCCNC(=O)c1ccc(Br)cc1 [4-Bromo-N-(3-(tert-butylamino)propyl)benzamide (15)]
< 4.00: all assays above

CC(C)(C)NCCCNC(=O)c1cc(Br)ccn1 [4-Bromo-N-(3-(tert-butylamino)propyl)picolinamide (24)]
< 4.00: all assays above

CC(C)(C)NCCCNC(=O)c1cc(C(F)(F)F)ccn1 [N-(3-(Tert-butylamino)propyl)-4-(trifluoromethyl)picolinamide (25)]
< 4.00: all assays above

CC(C)(C)NCCCCCNC(=O)c1cccc(Br)c1 [3-Bromo-N-(5-(tert-butylamino)pentyl)benzamide (12)]
< 4.00: all assays above
